Assay results: the supplement of paper PMC10307832

Legend:
Assay in all cases: relative viability (nuclei count vs DMSO), 5 days (fraction); higher = more cells survive
[1] = compound: COc1cc2ncn(-c3cc(OCc4ccccc4C(F)(F)F)c(C(N)=O)s3)c2cc1OC + CC(C)C[C@H](NC(=O)[C@H](Cc1ccccc1)NC(=O)c1cnccn1)B(O)O [Bortezomib] (partner 0.002 µM)
Method in brief: (§1)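 After 5 days of treatment, lung cancer cells in 1536-well plates were fixed and stained in a single step (final 0.05% Triton X-100, 1% formaldehyde, 1 ug/ml Hoechst) and their nuclei counted on 4× images. Treatment had been applied by pin tool the day after seeding as one drug alone or as a fixed anchor-drug dose with five library-drug doses (not always all listed) in √10 steps. Relative viability is the nuclei count of treated wells divided by that of vehicle wells, and values are medians of duplicate plates.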

[2] = compound: COc1cc2ncn(-c3cc(OCc4ccccc4C(F)(F)F)c(C(N)=O)s3)c2cc1OC + CS(=O)(=O)N1CCN(Cc2cc3nc(-c4cccc5[nH]ncc45)nc(N4CCOCC4)c3s2)CC1 [Pictilisib] (partner 1 µM)
Method in brief: as §1

[3] = compound: COc1cc2ncn(-c3cc(OCc4ccccc4C(F)(F)F)c(C(N)=O)s3)c2cc1OC + COc1cc2c(Oc3ccc(NC(=O)C4(C(=O)Nc5ccc(F)cc5)CC4)cc3F)ccnc2cc1OCCCN1CCOCC1 [Foretinib] (partner 0.25 µM)
Method in brief: as §1

[4] = compound: COc1cc2ncn(-c3cc(OCc4ccccc4C(F)(F)F)c(C(N)=O)s3)c2cc1OC + CC(=O)c1c(C)c2cnc(Nc3ccc(N4CCNCC4)cn3)nc2n(C2CCCC2)c1=O [Palbociclib] (partner 0.5 µM)
Method in brief: as §1

Cell Line | relative viability ([1]; first compound 0.05 µM) | relative viability ([1]; first compound 0.1581 µM) | relative viability ([1]; first compound 0.5 µM) | relative viability ([1]; first compound 1.581 µM) | relative viability ([1]; first compound 5 µM) | relative viability ([2]; first compound 0.05 µM) | relative viability ([2]; first compound 0.1581 µM) | relative viability ([2]; first compound 0.5 µM) | relative viability ([2]; first compound 1.581 µM) | relative viability ([2]; first compound 5 µM) | relative viability ([3]; first compound 0.05 µM) | relative viability ([3]; first compound 0.1581 µM) | relative viability ([3]; first compound 0.5 µM) | relative viability ([3]; first compound 1.581 µM) | relative viability ([3]; first compound 5 µM) | relative viability ([4]; first compound 0.05 µM) | relative viability ([4]; first compound 0.1581 µM) | relative viability ([4]; first compound 0.5 µM) | relative viability ([4]; first compound 1.581 µM) | relative viability ([4]; first compound 5 µM)
NCI-H1563 | 0.985 | 1.01 | 0.807 | 0.676 | 0.592 | 0.684 | 0.607 | 0.683 | 0.55 | 0.5 | 0.839 | 0.897 | 1.28 | 0.767 | 0.567 |  |  |  |  | 
NCI-H1648 |  |  |  |  |  |  |  |  |  |  |  |  |  |  |  | 0.222 | 0.309 | 0.234 | 0.273 | 0.255
NCI-H1703 | 0.384 | 0.339 | 0.172 | 0.0978 | 0.173 | 0.256 | 0.227 | 0.2 | 0.126 | 0.172 | 0.308 |  | 0.303 |  | 0.15 |  |  |  |  | 
NCI-H1792 | 0.958 | 0.91 | 0.88 | 0.423 | 0.223 | 0.278 | 0.254 | 0.158 | 0.0865 | 0.109 |  |  |  |  |  | 0.728 | 0.631 | 0.568 | 0.377 | 0.332
NCI-H1793 |  |  |  |  |  | 0.272 | 0.308 | 0.179 | 0.192 | 0.228 | 0.925 | 0.825 | 0.506 | 0.24 | 0.164 | 0.229 | 0.357 | 0.233 | 0.247 | 0.177
NCI-H1944 |  |  |  |  |  | 0.368 | 0.363 | 0.307 | 0.206 | 0.166 | 0.804 | 1.03 | 0.743 | 0.221 | 0.131 | 0.412 | 0.373 | 0.308 | 0.205 | 0.119
NCI-H2170 |  |  |  |  |  | 0.342 | 0.318 | 0.188 | 0.192 | 0.156 | 0.942 | 0.985 | 0.468 | 0.269 | 0.202 | 0.401 | 0.371 | 0.212 | 0.165 | 0.148
NCI-H2342 |  |  |  |  |  |  |  |  |  |  | 1.13 | 0.951 | 0.876 | 0.475 | 0.567 | 0.519 | 0.509 | 0.513 | 0.437 | 0.422
SK-MES-1 |  |  |  |  |  | 0.343 | 0.414 | 0.292 | 0.132 | 0.213 | 0.892 | 0.877 | 0.518 |  | 0.667 | 0.298 | 0.281 | 0.264 | 0.192 | 0.199
SW 900 |  |  |  |  |  |  |  |  |  |  | 0.857 | 0.818 | 0.7 | 0.41 | 0.169 | 0.478 | 0.5 | 0.499 | 0.399 | 0.257
